Test results reported in patent publication US20230120895A1, “PESTICIDALLY ACTIVE HETEROCYCLIC DERIVATIVES WITH SULFUR CONTAINING SUBSTITUENTS” (SYNGENTA CROP PROTECTION AG, priority 2019, published 2023).

What was measured:
Format in all cases: in vivo
Myzus persicae [1] = assay: Activity against Myzus persicae (green peach aphid), feeding/contact activity; details: foliar, 144 h, application rate 200 ppm, sprayed sunflower leaf discs, mixed ages, 6 days after infestation
Procedure: Sunflower leaf discs were placed onto agar in a 24-well microtiter plate and sprayed with aqueous test solutions prepared from 10′000 ppm DMSO stock solutions. After drying, the leaf discs were infested with an aphid population of mixed ages. The samples were assessed for mortality 6 days after infestation.

Spodoptera littoralis = assay: Activity against Spodoptera littoralis (Egyptian cotton leaf worm); details: foliar, 72 h, application rate 200 ppm, sprayed cotton leaf discs, L1 larvae, 3 days after infestation, read-out: control (mortality, anti-feeding effect or growth inhibition)
Procedure: Cotton leaf discs were placed onto agar in 24-well microtiter plates and sprayed with aqueous test solutions prepared from 10′000 ppm DMSO stock solutions. After drying the leaf discs were infested with five L1 larvae. The samples were assessed for mortality, anti-feeding effect, and growth inhibition in comparison to untreated samples 3 days after infestation. Control of Spodoptera littoralis by a test sample is given when at least one of the categories mortality, anti-feedant effect, and growth inhibition is higher than the untreated sample.

Diabrotica balteata = assay: Activity against Diabrotica balteata (corn root worm); details: 96 h, application rate 200 ppm, sprayed maize sprouts, L2 larvae, 4 days after infestation, read-out: effect in at least one of the two categories (mortality or growth inhibition)
Procedure: Maize sprouts placed onto an agar layer in 24-well microtiter plates were treated with aqueous test solutions prepared from 10′000 ppm DMSO stock solutions by spraying. After drying, the plates were infested with L2 larvae (6 to 10 per well). The samples were assessed for mortality and growth inhibition in comparison to untreated samples 4 days after infestation.

Chilo suppressalis = assay: Activity against Chilo suppressalis (striped rice stemborer); details: 144 h, application rate 200 ppm, artificial diet, L2 larvae, 6 days after infestation, read-out: control (mortality, anti-feeding effect or growth inhibition)
Procedure: 24-well microtiter plates with artificial diet were treated with aqueous test solutions prepared from 10′000 ppm DMSO stock solutions by pipetting. After drying, the plates were infested with L2 larvae (6-8 per well). The samples were assessed for mortality, anti-feeding effect, and growth inhibition in comparison to untreated samples 6 days after infestation. Control of Chilo suppressalis by a test sample is given when at least one of the categories mortality, anti-feedant effect, and growth inhibition is higher than the untreated sample.

Myzus persicae [2] = assay: Activity against Myzus persicae (green peach aphid), systemic activity; details: 144 h, test rate 24 ppm, roots of pea seedlings in test solution, 6 days
Procedure: Roots of pea seedlings infested with an aphid population of mixed ages were placed directly into aqueous test solutions prepared from 10′000 DMSO stock solutions. The samples were assessed for mortality 6 days after placing seedlings into test solutions.

Plutella xylostella = assay: Activity against Plutella xylostella (diamond back moth); details: 192 h, application rate 200 ppm, artificial diet, eggs, 8 days after infestation, read-out: effect in at least one of the two categories (mortality or growth inhibition)
Procedure: 24-well microtiter plates with artificial diet were treated with aqueous test solutions prepared from 10′000 ppm DMSO stock solutions by pipetting. After drying, Plutella eggs were pipetted through a plastic stencil onto a gel blotting paper and the plate was closed with it. The samples were assessed for mortality and growth inhibition in comparison to untreated samples 8 days after infestation. The following compounds gave an effect of at least 80% in at least one of the two categories (mortality or growth inhibition) at an application rate of 200 ppm: P2, P3, P4, P5, P6, P8, P13.

[3] = tested on: Carpocapsa (Cydia) pomonella; assay: Activity against Carpocapsa (Cydia) pomonella (codling moth); details: 336 h, application rate 12.5 ppm, sprayed diet cubes, L1 larvae, 14 days after infestation
Procedure: Diet cubes coated with paraffin were sprayed with diluted test solutions in an application chamber. After drying off the treated cubes (10 replicates) were infested with 1 L1 larvae. Samples were incubated at 26-27° C. and checked 14 days after infestation for mortality and growth inhibition.

Euschistus heros = assay: Activity against Euschistus heros (neotropical brown stink bug); details: 120 h, application rate 200 ppm, sprayed soybean leaves, N2 nymphs, 5 days after infestation, read-out: effect in at least one of the two categories (mortality or growth inhibition)
Procedure: Soybean leaves on agar in 24-well microtiter plates were sprayed with aqueous test solutions prepared from 10′000 ppm DMSO stock solutions. After drying the leaves were infested with N2 nymphs. The samples were assessed for mortality and growth inhibition in comparison to untreated samples 5 days after infestation.

CCS(=O)(=O)c1cc(N(C)C(C)=O)cnc1-c1cc2ccc(=O)n(CC(F)(F)C(F)(F)F)c2cn1 [P7, N-[5-ethylsulfonyl-6-[2-oxo-1-(2,2,3,3,3-pentafluoropropyl)-1,7-naphthyridin-6-yl]-3-pyridyl]-N-methyl-acetamide]
≥ 80%: mortality at 200 ppm (Myzus persicae [1]) | percent control (mortality, anti-feedant effect or growth inhibition) at 200 ppm (Spodoptera littoralis) | percent effect (mortality or growth inhibition) at 200 ppm (Diabrotica balteata) | percent control (mortality, anti-feedant effect or growth inhibition) at 200 ppm (Chilo suppressalis) | mortality at 24 ppm (Myzus persicae [2])

CCSc1cc(C2(C#N)CC2)cnc1-c1cc2ccc(=O)n(CC(F)(F)C(F)(F)F)c2cn1 [P13, 1-[5-ethylsulfanyl-6-[2-oxo-1-(2,2,3,3,3-pentafluoropropyl)-1,7-naphthyridin-6-yl]-3-pyridyl]cyclopropanecarbonitrile]
≥ 80%: percent control (mortality, anti-feedant effect or growth inhibition) at 200 ppm (Spodoptera littoralis) | percent effect (mortality or growth inhibition) at 200 ppm (Diabrotica balteata) | percent control (mortality, anti-feedant effect or growth inhibition) at 200 ppm (Chilo suppressalis) | percent effect (mortality or growth inhibition) at 200 ppm (Plutella xylostella)

CCS(=O)(=O)c1cc(C(C)(C)C#N)cnc1-c1cc2ccc(=O)n(CC(F)(F)C(F)(F)F)c2cn1 [P6, 2-[5-ethylsulfonyl-6-[2-oxo-1-(2,2,3,3,3-pentafluoropropyl)-1,7-naphthyridin-6-yl]-3-pyridyl]-2-methyl-propanenitrile]
≥ 80%: percent control (mortality, anti-feedant effect or growth inhibition) at 200 ppm (Spodoptera littoralis) | percent effect (mortality or growth inhibition) at 200 ppm (Diabrotica balteata) | mortality at 12.5 ppm [3] | percent effect (mortality or growth inhibition) at 200 ppm (Euschistus heros) | percent control (mortality, anti-feedant effect or growth inhibition) at 200 ppm (Chilo suppressalis) | percent effect (mortality or growth inhibition) at 200 ppm (Plutella xylostella)

CCS(=O)(=O)c1cc(-n2ccc(Cl)n2)cnc1-c1cc2ccc(=O)n(CC(F)(F)C(F)(F)F)c2cn1 [P8, 6-[5-(3-chloropyrazol-1-yl)-3-ethylsulfonyl-2-pyridyl]-1-(2,2,3,3,3-pentafluoropropyl)-1,7-naphthyridin-2-one]
≥ 80%: percent control (mortality, anti-feedant effect or growth inhibition) at 200 ppm (Spodoptera littoralis) | percent effect (mortality or growth inhibition) at 200 ppm (Diabrotica balteata) | percent effect (mortality or growth inhibition) at 200 ppm (Euschistus heros) | percent control (mortality, anti-feedant effect or growth inhibition) at 200 ppm (Chilo suppressalis) | percent effect (mortality or growth inhibition) at 200 ppm (Plutella xylostella)

CCS(=O)(=O)c1ccc(-n2ccnn2)nc1-c1cc2ccc(=O)n(CC(F)(F)C(F)(F)F)c2cn1 [P12, 6-[3-ethylsulfonyl-6-(triazol-1-yl)-2-pyridyl]-1-(2,2,3,3,3-pentafluoropropyl)-1,7-naphthyridin-2-one]
≥ 80%: percent control (mortality, anti-feedant effect or growth inhibition) at 200 ppm (Spodoptera littoralis) | percent effect (mortality or growth inhibition) at 200 ppm (Diabrotica balteata) | percent control (mortality, anti-feedant effect or growth inhibition) at 200 ppm (Chilo suppressalis)

CCS(=O)(=O)c1ccc(-n2cncn2)nc1-c1cc2ccc(=O)n(CC(F)(F)C(F)(F)F)c2cn1 [P4, 6-[3-ethylsulfonyl-6-(1,2,4-triazol-1-yl)-2-pyridyl]-1-(2,2,3,3,3-pentafluoropropyl)-1,7-naphthyridin-2-one]
≥ 80%: percent control (mortality, anti-feedant effect or growth inhibition) at 200 ppm (Spodoptera littoralis) | mortality at 12.5 ppm [3] | percent control (mortality, anti-feedant effect or growth inhibition) at 200 ppm (Chilo suppressalis) | percent effect (mortality or growth inhibition) at 200 ppm (Plutella xylostella)

CCS(=O)(=O)c1cccnc1-c1cc2ccc(=O)n(CC(F)(F)C(F)(F)F)c2cn1 [P2, 6-(3-ethylsulfonyl-2-pyridyl)-1-(2,2,3,3,3-pentafluoropropyl)-1,7-naphthyridin-2-one]
≥ 80%: mortality at 200 ppm (Myzus persicae [1]) | percent control (mortality, anti-feedant effect or growth inhibition) at 200 ppm (Spodoptera littoralis) | percent effect (mortality or growth inhibition) at 200 ppm (Diabrotica balteata) | percent effect (mortality or growth inhibition) at 200 ppm (Euschistus heros) | percent control (mortality, anti-feedant effect or growth inhibition) at 200 ppm (Chilo suppressalis) | percent effect (mortality or growth inhibition) at 200 ppm (Plutella xylostella) | mortality at 24 ppm (Myzus persicae [2])

CCS(=O)(=O)c1cc(Oc2ccccn2)cnc1-c1cc2ccc(=O)n(CC(F)(F)C(F)(F)F)c2cn1 [P9, 6-[3-ethylsulfonyl-5-(2-pyridyloxy)-2-pyridyl]-1-(2,2,3,3,3-pentafluoropropyl)-1,7-naphthyridin-2-one]
≥ 80%: percent control (mortality, anti-feedant effect or growth inhibition) at 200 ppm (Spodoptera littoralis) | percent effect (mortality or growth inhibition) at 200 ppm (Diabrotica balteata) | percent effect (mortality or growth inhibition) at 200 ppm (Euschistus heros) | percent control (mortality, anti-feedant effect or growth inhibition) at 200 ppm (Chilo suppressalis)

CCS(=O)(=O)c1cc(C2(C#N)CC2)cnc1-c1cc2ccc(=O)n(CC(F)(F)F)c2cn1 [P10, 1-[5-ethylsulfonyl-6-[2-oxo-1-(2,2,2-trifluoroethyl)-1,7-naphthyridin-6-yl]-3-pyridyl]cyclopropanecarbonitrile]
≥ 80%: mortality at 200 ppm (Myzus persicae [1]) | percent control (mortality, anti-feedant effect or growth inhibition) at 200 ppm (Spodoptera littoralis) | percent effect (mortality or growth inhibition) at 200 ppm (Diabrotica balteata) | percent effect (mortality or growth inhibition) at 200 ppm (Euschistus heros) | percent control (mortality, anti-feedant effect or growth inhibition) at 200 ppm (Chilo suppressalis)

CCS(=O)(=O)c1ccc(-n2nccn2)nc1-c1cc2ccc(=O)n(CC(F)(F)C(F)(F)F)c2cn1 [P11, 6-[3-ethylsulfonyl-6-(triazol-2-yl)-2-pyridyl]-1-(2,2,3,3,3-pentafluoropropyl)-1,7-naphthyridin-2-one]
≥ 80%: percent control (mortality, anti-feedant effect or growth inhibition) at 200 ppm (Spodoptera littoralis) | percent effect (mortality or growth inhibition) at 200 ppm (Diabrotica balteata) | percent control (mortality, anti-feedant effect or growth inhibition) at 200 ppm (Chilo suppressalis)

CCSc1cc(-n2ccc(Cl)n2)cnc1-c1cc2ccc(=O)n(CC(F)(F)C(F)(F)F)c2cn1 [P14, 6-[5-(3-chloropyrazol-1-yl)-3-ethylsulfanyl-2-pyridyl]-1-(2,2,3,3,3-pentafluoropropyl)-1,7-naphthyridin-2-one]
≥ 80%: percent control (mortality, anti-feedant effect or growth inhibition) at 200 ppm (Chilo suppressalis)

CCSc1cc(C2(C#N)CC2)cnc1-c1cc2ccc(=O)n(CC(F)(F)F)c2cn1 [P15, 1-[5-ethylsulfanyl-6-[2-oxo-1-(2,2,2-trifluoroethyl)-1,7-naphthyridin-6-yl]-3-pyridyl]cyclopropanecarbonitrile]
≥ 80%: percent control (mortality, anti-feedant effect or growth inhibition) at 200 ppm (Spodoptera littoralis) | percent effect (mortality or growth inhibition) at 200 ppm (Diabrotica balteata) | percent control (mortality, anti-feedant effect or growth inhibition) at 200 ppm (Chilo suppressalis)

CCS(=O)(=O)c1ccc(C2CC2)nc1-c1cc2ccc(=O)n(CC(F)(F)C(F)(F)F)c2cn1 [P5, 6-(6-cyclopropyl-3-ethylsulfonyl-2-pyridyl)-1-(2,2,3,3,3-pentafluoropropyl)-1,7-naphthyridin-2-one]
≥ 80%: mortality at 200 ppm (Myzus persicae [1]) | percent control (mortality, anti-feedant effect or growth inhibition) at 200 ppm (Spodoptera littoralis) | percent effect (mortality or growth inhibition) at 200 ppm (Diabrotica balteata) | percent control (mortality, anti-feedant effect or growth inhibition) at 200 ppm (Chilo suppressalis) | percent effect (mortality or growth inhibition) at 200 ppm (Plutella xylostella)
